Read-outs that look alike come from different tables or passages of the source.
System: HCV replicon
Assay: HCV replicon replication assay (NPT ELISA)
Assay type: cell-based
Settings: Hepatitis C virus
Experimental: Compounds claimed herein are tested for the ability to inhibit viral replication of the Hepatitis C replicon in cultured cells in which the HCV replicon construct has been incorporated. The HCV replicon system was described by Bartenschlager, et. al (Science, 285, pp. 110-113 (1999)). The replicon system is predictive of in vivo anti-HCV activity; compounds that are active in humans uniformly evidence activity in the replicon assay.
In this assay HCV replicon containing cells are treated with different concentrations of the test compound to ascertain the ability of the test compound to suppress replication of the HCV replicon. As a positive control, HCV replicon-containing cells are treated with different concentrations of interferon alpha, a known inhibitor of HCV replication. The replicon assay system includes Neomycin Phosphotransferase (NPT) as a component of the replicon itself in order to detect the transcription of replicon gene products in the host cell. Cells in which the HCV replicon is actively replicating have high levels of NPT; the level of NPT is proportional to HCV replication. […] The NPT level of each sample is measured using a captured ELISA.
A protocol for testing compounds for the ability to inhibit viral replication of the Hepatitis C replicon cultured cells in which the replicon construct has been incorporated, follows.
The HCV replicon contains, 5′-3′, the HCV-IRES, the neomycin phosphotransferase (neo) gene, the IRES of encephalomyocarditis virus, which directs translation of HCV sequences NS3 to NS5B, and the 3′-NTR. The sequence of the HCV replicon has been deposited in GenBank (Accession no. AJ242652).
The replicon is transfected into Huh-7 cells using standard methods such as electroporation.
The equipment and materials include, but are not limited to, Huh-7 HCV replicon-containing cells, maintenance media (DMEM (Dulbecco's modified Eagle media) supplemented with 10% FBS, L-glutamine, non-essential amino acids, penicillin (100 units/ml), streptomycin (100 micrograms/ml), and 500 micrograms/ml of Geneticin (G418), screening media (DMEM supplemented with 10% FBS, L-glutamine, non-essential amino acids, penicillin (100 units/ml) and streptomycin (100 micrograms/ml)), 96 well tissue culture plates (flat bottom), 96 well plates (U bottom for drug dilution), Interferon alpha for positive control, fixation reagent (such as methanol: acetone), primary antibody (rabbit anti-NPTII), secondary antibody: Eu-N1 1, and enhancement solution.
HCV replicon-containing cells support high levels of viral RNA replicon replication when their density is suitable. Over-confluency causes decreased viral RNA replication. Therefore, cells must be kept growing in log phase in the presence of 500 micrograms/ml of G418. Generally, cells should be passed twice a week at 1: 4-6 dilution. Cell maintenance is conducted as follows:
HCV replicon-containing cells are examined under a microscope to ensure that cells growing well. Cells are rinsed once with PBS and 2 ml trypsin is added. The cell/trypsin mixture is incubated at 37° C. in a CO2 incubator for 3-5 minutes. After incubation 10 ml of complete media is added to stop the trypsinization reaction. Cells are blown gently, put into a 15 ml tube, and spun at 1200 rpm for 4 minutes. The trypsin/medium solution is removed. Medium (5 ml) is added and the cells are mixed carefully. The cells are counted.
The cells are then seeded onto 96-well plates at a density of 6000-7500 cells/100 microliters/well (6−7.5×10^5 cells/10 ml/plate). The plates are then incubated at 37° C. in a 5% CO2 incubator.
Cells are examined under a microscope approximated 24 hours after seeding and prior to adding drugs. If counting and dilution were performed correctly, cells are 60-70% confluent and nearly all cells should attach and spread evenly in the well.
HCV replicon-containing cells are rinsed with once PBS once; 2 mls of trypsin are then added. Cells are incubated at 37° C. in a 5% CO2 incubator for 3-5 minutes. […]

[1] = 72 h, Huh-7 HCV replicon-containing cells, three days, numeric cells, read-out: EC50
[2] = 72 h, Huh-7 HCV replicon-containing cells, three days, class symbols, read-out: EC50

Compound	EC50 [2] [nM]	other results
COC(=O)N[C@H](C(=O)N1C2CCC(C2)[C@H]1c1ncc(-c2ccc(Br)cc2)[nH]1)C(C)C (stereo partly drawn) [Compound 54, methyl (2S)-1-((3S)-3-(5-(4-bromophenyl)-1H-imidazol-2-yl)-2-azabicyclo[2.2.1]heptan-2-yl)-3-methyl-1-oxobutan-2-ylcarbamate]	–	EC50 [1]: < 100 nM
COC(=O)NC(C(=O)N1CCC[C@H]1c1ncc(-c2ccc(-c3ccc(-c4c[nH]c([C@@H]5Cc6ccccc6N5C(=O)C(NC(=O)OC)C(C)C)n4)cc3)cc2)[nH]1)C(C)C (some centres unmarked) [Compound 35]	< 5	–
COC(=O)N[C@H](C(=O)N1CCC[C@H]1c1cnc(-c2ccc(-c3ccc(NC(=O)[C@H]4CCCCN4C(=O)[C@H](NC(=O)OC(C)(C)C)c4ccccc4)cc3)cc2)[nH]1)C(C)C [Compound 39]	–	EC50 [1]: > 1 nM; EC50 (Huh-7): ≤ 10000 nM
CCCS(=O)(=O)N1CCN(Cc2ccc(NC(=O)c3ccc(-c4ccc(C(=O)Nc5ccc(CN6CCN(S(=O)(=O)CCC)CC6)cc5)cc4)cc3)cc2)CC1 [Compound 17, N4,N4′-bis(4-((4-(propylsulfonyl)piperazin-1-yl)methyl)phenyl)biphenyl-4,4′-dicarboxamide]	< 50	–
COC(=O)N[C@H](C(=O)N1CCCCC1c1nc(-c2ccc(-c3ccc(-c4c[nH]c(C5CCCCN5C(=O)[C@@H](NC(=O)OC)C(C)C)n4)cc3)cc2)c[nH]1)C(C)C (some centres unmarked) [Compound 50]	< 5	–
COC(=O)N[C@H](C(=O)N1C2CCC(C2)[C@H]1c1nc(-c2ccc(-c3c[nH]c([C@@H]4C5CCC(C5)N4C(=O)[C@@H](NC(=O)OC)C(C)C)n3)cc2)c[nH]1)C(C)C [Compound 74]	< 50	–
COC(=O)N[C@H](C(=O)N1CCC[C@H]1c1ncc(-c2ccc(-c3ccc(-c4c[nH]c([C@@H]5C6CC([C@H](O)C6)N5C(=O)[C@@H](NC(=O)OC)C(C)C)n4)cc3)cc2)[nH]1)C(C)C (some centres unmarked) [Compound 45]	< 50	–
COC(=O)N[C@H](C(=O)N1CCCCCC1c1nc(-c2ccc(-c3ccc(-c4c[nH]c(C5C6CCC(C6)N5C(=O)[C@@H](NC(=O)OC)C(C)C)n4)cc3)cc2)c[nH]1)C(C)C (some centres unmarked) [Compound 63]	< 5	–
COC(=O)NC(C(=O)N1CCC[C@H]1Cc1nc(-c2ccc(-c3ccc(-c4cnc([C@@H]5CCCN5C(=O)[C@@H](NC(=O)OC)C(C)C)[nH]4)cc3)cc2)c[nH]1)C(C)C (some centres unmarked) [Compound 42]	< 5	–
CC(C)(C)OC(=O)N1CC=CC1c1nc(-c2ccc(-c3ccc(-c4c[nH]c([C@@H]5C=CCN5C(=O)OC(C)(C)C)n4)cc3)cc2)c[nH]1 (stereo partly drawn) [Compound 20, (2R,2′R)-tert-butyl 2,2′-(4,4′-(biphenyl-4,4′-diyl)bis(1H-imidazole-4,2-diyl))bis(2,5-dihydro-1H-pyrrole-1-carboxylate)]	< 100	–
CCS(=O)(=O)N[C@H](C(=O)N1C2CCC(C2)[C@H]1c1nc(-c2ccc(-c3ccc(-c4c[nH]c([C@@H]5C6CCC(C6)N5C(=O)[C@@H](NS(=O)(=O)CC)C(C)C)n4)cc3)cc2)c[nH]1)C(C)C [Compound 33, N,N′-(2S,2′S)-1,1′-((3S,3′S)-3,3′-(4,4′-(biphenyl-4,4′-diyl)bis(1H-imidazole-4,2-diyl))bis(2-azabicyclo[2.2.1]heptane-3,2-diyl))bis(3-methyl-1-oxobutane-2,1-diyl)diethanesulfonamide]	< 5	EC50 (Huh-7): ≤ 10000 nM
CNC(=O)C[C@H](C(=O)N1CCC[C@H]1c1ncc(-c2ccc(-c3cnc([C@@H]4CCCN4C(=O)[C@@H](CC(=O)NC)C(C)(C)C)[nH]3)cc2)[nH]1)C(C)(C)C [Compound 23, (3S,3′S)-3,3′-(2S,2′S)-2,2′-(5,5′-(1,4-phenylene)bis(1H-imidazole-5,2-diyl))bis(pyrrolidine-2,1-diyl)bis(oxomethylene)bis(N,4,4-trimethylpentanamide)]	< 50	–
COC(=O)NC(C(=O)C1C(c2nc(-c3ccc(-c4ccc(-c5cnc([C@@H]6CCCN6C(=O)[C@@H](NC(=O)OC)C(C)C)[nH]5)cc4)cc3)c[nH]2)C2CC1[C@H](F)[C@@H]2F)C(C)C (some centres unmarked) [Compound 60]	< 5	–
CNC(=O)C[C@H](C(=O)N1CCC[C@@H]1c1ncc(-c2ccc(-c3ccc(-c4cnc([C@@H]5CCCN5C(=O)[C@@H](CC(=O)NC)C(C)C)[nH]4)cc3)cc2)[nH]1)C(C)C [Compound 40, (S)-3-((R)-2-(5-(4′-(2-((S)-1-((S)-2-isopropyl-4-(methylamino)-4-oxobutanoyl)pyrrolidin-2-yl)-1H-imidazol-5-yl)biphenyl-4-yl)-1H-imidazol-2-yl)pyrrolidine-1-carbonyl)-N,4-dimethylpentanamide]	< 5	EC50 (Huh-7): ≤ 10000 nM
CCCS(=O)(=O)N1CCN(Cc2ccc(NC(=O)c3ccc(-c4ccc(-c5c[nH]c([C@@H]6CCCN6C(=O)[C@@H](NC(=O)OC)C(C)C)n5)cc4)cc3)cc2)CC1 [Compound 19, methyl (S)-3-methyl-1-oxo-1-((S)-2-(4-(4′-(4-((4-(propylsulfonyl)piperazin-1-yl)methyl)phenylcarbamoyl)biphenyl-4-yl)-1H-imidazol-2-yl)pyrrolidin-1-yl)butan-2-ylcarbamate]	< 50	–
COC(=O)N[C@H](C(=O)N1CCC[C@H]1c1ncc(-c2ccc(-c3ccc(-c4c[nH]c([C@@H]5C6CCC(C6)N5C(=O)[C@@H](NC(=O)OC)C(C)C)n4)cc3)cc2)[nH]1)C(C)C (some centres unmarked) [Compound 36]	< 50	–
COC(=O)N[C@H](C(=O)N1CCCCCC1c1nc(-c2ccc(-c3ccc(-c4c[nH]c(C5CCCN5C(=O)[C@@H](NC(=O)OC)C(C)C)n4)cc3)cc2)c[nH]1)C(C)C (some centres unmarked) [Compound 59]	< 5	–
COC(=O)NC(C(=O)N1C2CCC(C2)C1c1nc(-c2ccc(-c3ccc(-c4c[nH]c(C5C=CCN5C(=O)[C@@H](NC(=O)OC)C(C)C)n4)cc3)cc2)c[nH]1)C(C)C (some centres unmarked) [Compound 62]	< 5	–
COC(=O)N[C@H](C(=O)N1C2CC(CN(C)C2)C1c1nc(-c2ccc(-c3ccc(-c4cnc([C@@H]5CCCN5C(=O)[C@@H](NC(=O)OC)C(C)C)[nH]4)cc3)cc2)c[nH]1)C(C)C (some centres unmarked) [Compound 52]	< 50	–
COC(=O)N[C@H](C(=O)N1CCC[C@H]1c1nc(-c2ccc(-c3ccc(-c4c[nH]c([C@@H]5C6CCC(CC6)N5C(=O)[C@@H](NC(=O)OC)C(C)C)n4)cc3)cc2)c[nH]1)C(C)C [Compound 47]	< 5	–
COC(=O)N[C@@H](C(=O)N1c2ccccc2C[C@H]1c1nc(-c2ccc(-c3ccc(-c4cnc([C@@H]5Cc6ccccc6N5)[nH]4)cc3)cc2)c[nH]1)C(C)C [Compound 26, methyl (R)-1-((S)-2-(4-(4′-(2-((S)-indolin-2-yl)-1H-imidazol-5-yl)biphenyl-4-yl)-1H-imidazol-2-yl)indolin-1-yl)-3-methyl-1-oxobutan-2-ylcarbamate]	< 5	–
CNC(=O)C[C@H](C(=O)N1CCC[C@H]1c1ncc(-c2ccc3c(c2)Cc2cc(-c4cnc([C@@H]5CCCN5C(=O)[C@@H](CC(=O)NC)C(C)(C)C)[nH]4)ccc2-3)[nH]1)C(C)(C)C [Compound 37, (3S,3′S)-3,3′-(2S,2′S)-2,2′-(5,5′-(9H-fluorene-2,7-diyl)bis(1H-imidazole-5,2-diyl))bis(pyrrolidine-2,1-diyl)bis(oxomethylene)bis(N,4,4-trimethylpentanamide)]	–	EC50 (Huh-7, 72 h): > 1 nM
CCCS(=O)(=O)N1CCN(Cc2ccc(NC(=O)c3ccc(-c4ccc(-c5c[nH]c([C@@H]6CCCN6C(=O)OC(C)(C)C)n5)cc4)cc3)cc2)CC1 [Compound 18, (S)-tert-butyl 2-(4-(4′-(4-((4-(propylsulfonyl)piperazin-1-yl)methyl)phenylcarbamoyl)biphenyl-4-yl)-1H-imidazol-2-yl)pyrrolidine-1-carboxylate]	< 50	–

Reference: patent publication US9125904B1, “Biphenyl imidazoles and related compounds useful for treating HCV infections” (ACHILLION PHARMACEUTICALS, INC., priority 2010, dated 2015)
